One assay deals with T1, KRAS G12D/RAF1 (Homo sapiens, UniProt P01116, G12D).
T1 construct: KRAS (1-169) proteins were expressed in E. coli at 18° C; His6-MBP (N, cleaved yes); made in house; host or cells: E. coli
The experiment in a line: Protein-protein interaction (PPI) HTRF assay KRAS G12D/RAF1. The format is binding. The note with it: KRAS G12D/RAF1, GppNHp-loaded KRAS; 30 minutes pre-incubation. Summed up: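 IC50 values come from the 665/615 HTRF ratio, scaled between no-compound (0% inhibition) and untagged RAF1 (100%). GppNHp-exchanged, biotinylated RAS (1-169) solution at 16 nM met compound for 30 min at room temperature. Then 16 nM His-tagged RAF1 (52-131) donor solution was added and incubated 1 h.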

In assay [1] the test system is AGS (KRAS G12D) cells, phospho-ERK. In words: pERK In Cell Western (ICW) assay (Method B). Conditions: 3 hours. The format is cell-based. An outline of the steps: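 AGS cells seeded at 5,000/well, grown overnight, then treated 3 h at 37 °C with ½-log 10-point dilutions (top 10 μM). Fixed cells stained for phospho-ERK, normalized to DRAQ5 DNA signal and to DMSO control; IC50 from 4-parameter variable-slope fit.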

Results on 16 compounds are retold here after patent publication US11912723B2, “KRAS modulators and uses thereof” (Quanta Therapeutics, Inc., priority 2022, dated 2024).

T1 sequence (P01116 1-169 isoform P01116-2 G12D): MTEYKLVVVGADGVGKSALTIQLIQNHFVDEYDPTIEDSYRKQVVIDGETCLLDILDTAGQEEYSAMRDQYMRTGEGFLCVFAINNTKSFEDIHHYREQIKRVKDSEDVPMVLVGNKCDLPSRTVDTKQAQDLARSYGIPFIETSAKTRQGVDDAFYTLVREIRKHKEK

With `F[C@H]1CN2CCC[C@@]2(COc2nc3c(c(N4C[C@H]5CC[C@@H](C4)N5)n2)COC2(CCc4c(Cl)cccc42)C3)C1` (stereo partly drawn) [Compound 2, 4′-((1R,5S)-3,8-diazabicyclo[3.2.1]octan-3-yl)-4-chloro-2′-(((2R,7aS)-2-fluorotetrahydro-1H-pyrrolizin-7a(5H)-yl)methoxy)-2,3,5′,8′-tetrahydrospiro[indene-1,7′-pyrano[4,3-d]pyrimidine]], the IC50 is 10 to 100 µM on KRAS G12D/RAF1 and 1 to 10 µM in assay [1] (Homo sapiens).

As to `CN1Cc2c(nc(OC[C@@]34CCCN3C[C@H](F)C4)nc2N2CCC[C@]3(C2)NC(=O)NC3=O)C[C@]12CCc1ccccc12` [Compound 60, (5R)-9-[(7S)-2-[[(2R,8S)-2-fluoro-1,2,3,5,6,7-hexahydropyrrolizin-8-yl]methoxy]-6-methyl-spiro[5,8-dihydropyrido[4,3-d]pyrimidine-7,1′-indane]-4-yl]-1,3,9-triazaspiro[4.5]decane-2,4-dione], the IC50 at KRAS G12D/RAF1 was 10 to 100 µM; in assay [1] (Homo sapiens), more than 10 µM.

Turning to `CN1Cc2c(nc(OC[C@@]34CCCN3C[C@H](F)C4)nc2N2CCCn3nc(-c4nnnn4C)c(Cl)c3C2)C[C@]12CCCc1ccccc12` [Compound 99, (7S)-4-[3-chloro-2-(1-methyltetrazol-5-yl)-4,6,7,8-tetrahydropyrazolo[1,5-a][1,4]diazepin-5-yl]-2-[[(2R,8S)-2-fluoro-1,2,3,5,6,7-hexahydropyrrolizin-8-yl]methoxy]-6-methyl-spiro[5,8-dihydropyrido[4,3-d]pyrimidine-7,1′-tetralin]], the IC50 is more than 100 µM against KRAS G12D/RAF1 and 0.1 to 1 µM in assay [1] (Homo sapiens).

With `C#Cc1c(C(=O)N(C)C)nn2c1CN(c1nc(OC[C@@]34CCCN3C[C@H](F)C4)nc3c1CN(C)[C@@]1(CCCc4ccccc41)C3)CCC2` [Compound 81, 3-ethynyl-5-[(7S)-2-[[(2R,8S)-2-fluoro-1,2,3,5,6,7-hexahydropyrrolizin-8-yl]methoxy]-6-methyl-spiro[5,8-dihydropyrido[4,3-d]pyrimidine-7,1′-tetralin]-4-yl]-N,N-dimethyl-4,6,7,8-tetrahydropyrazolo[1,5-a][1,4]diazepine-2-carboxamide], the IC50 against KRAS G12D/RAF1 is 10 to 100 µM; in assay [1] (Homo sapiens), 0.01 to 0.1 µM.

On to `OC1CCCN(c2nc(OC[C@@]34CCCN3C[C@H](F)C4)nc3c2COC2(CCCc4ccc(Cl)cc42)C3)CC1` (stereo partly drawn) [Compound 17, 1-(7-chloro-2′-(((2R,7aS)-2-fluorotetrahydro-1H-pyrrolizin-7a(5H)-yl)methoxy)-3,4,5′,8′-tetrahydro-2H-spiro[naphthalene-1,7′-pyrano[4,3-d]pyrimidin]-4′-yl)azepan-4-ol], for which the IC50 lay within 10 to 100 µM at KRAS G12D/RAF1 and 1 to 10 µM in assay [1] (Homo sapiens).

On to `Oc1ccc2c(c1)C1(CCC2)Cc2nc(OC[C@@]34CCCN3C[C@H](F)C4)nc(N3CCCCCC3)c2CO1` (single isomer, unassigned) [Compound 8], for which the IC50 at KRAS G12D/RAF1 was more than 100 µM; in assay [1], more than 10 µM.

Regarding `O=C1NC(=O)C2(CCCN(c3nc(OC[C@@]45CCCN4C[C@H](F)C5)nc4c3COC3(CCc5c(Cl)cccc53)C4)C2)N1` (single isomer, unassigned) [Compound 24A, (5*)-9-[(7*)-4′-chloro-2-[[(2R,8S)-2-fluoro-1,2,3,5,6,7-hexahydropyrrolizin-8-yl]methoxy]spiro[5,8-dihydropyrano[4,3-d]pyrimidine-7,1′-indane]-4-yl]-1,3,9-triazaspiro[4.5]decane-2,4-dione], the results for the IC50 (on KRAS G12D/RAF1; in assay [1] (Homo sapiens)) were 10 to 100 µM and 1 to 10 µM, respectively.

Take `CN(C)C(=O)c1cc2n(n1)CCCN(c1nc(OC[C@@]34CCCN3C[C@H](F)C4)nc3c1CN(C)[C@@]1(CCCc4ccccc41)C3)C2` [Compound 72, 5-[(7S)-2-[[(2R,8S)-2-fluoro-1,2,3,5,6,7-hexahydropyrrolizin-8-yl]methoxy]-6-methyl-spiro[5,8-dihydropyrido[4,3-d]pyrimidine-7,1′-tetralin]-4-yl]-N,N-dimethyl-4,6,7,8-tetrahydropyrazolo[1,5-a][1,4]diazepine-2-carboxamide]: the figures for the half-inhibitory concentration (IC50) (against KRAS G12D/RAF1; in assay [1] (Homo sapiens)) were 10 to 100 µM and 0.1 to 1 µM, respectively.

Turning to `CN(C)C(=O)c1cc2n(n1)CCCN(c1nc(OC[C@@]34CCCN3C[C@H](F)C4)nc3c1CN(C)C1(CCCc4ccc(O)cc41)C3)C2` (stereo partly drawn) [Compound 39, 5-[7′-hydroxy-6-methyl-2-[[(2R,8S)-2-fluoro-1,2,3,5,6,7-hexahydropyrrolizin-8-yl]methoxy]spiro[5,8-dihydropyrido[4,3-d]pyrimidine-7,1′-tetralin]-4-yl]-N,N-dimethyl-4,6,7,8-tetrahydropyrazolo[1,5-a][1,4]diazepine-2-carboxamide], the half-maximal inhibitory concentration (IC50) against KRAS G12D/RAF1 is more than 100 µM; in assay [1] (Homo sapiens), 1 to 10 µM.

Take `Oc1ccc2c(c1)C1(CCC2)Cc2nc(OC[C@@]34CCCN3C[C@H](F)C4)nc(N3CCCC(O)CC3)c2CO1` (stereo partly drawn) [Compound 14, 2-[[(2S,8R)-2-fluoro-1,2,3,5,6,7-hexahydropyrrolizin-8-yl]methoxy]-4-(4-hydroxyazepan-1-yl)spiro[5,8-dihydropyrano[4,3-d]pyrimidine-7,4′-tetralin]-6′-ol]: the figures for the IC50 (against KRAS G12D/RAF1; in assay [1] (Homo sapiens)) were more than 100 µM and more than 10 µM, respectively.

As to `CN(C)C(=O)c1nn2c(c1Cl)CN(c1nc(OC[C@@]34CCCN3C[C@H](F)C4)nc3c1CN(C)[C@@]1(CCCc4ccccc41)C3)CCC2` [Compound 64, 3-chloro-5-[(7S)-2-[[(2R,8S)-2-fluoro-1,2,3,5,6,7-hexahydropyrrolizin-8-yl]methoxy]-6-methyl-spiro[5,8-dihydropyrido[4,3-d]pyrimidine-7,1′-tetralin]-4-yl]-N,N-dimethyl-4,6,7,8-tetrahydropyrazolo[1,5-a][1,4]diazepine-2-carboxamide], the IC50 is 10 to 100 µM against KRAS G12D/RAF1 and 0.01 to 0.1 µM in assay [1] (Homo sapiens).

As to `CN1Cc2c(nc(OC[C@@]34CCCN3C[C@H](F)C4)nc2N2CCCn3nc(N)c(Cl)c3C2)C[C@]12CCCc1ccccc12` [Compound 79, 3-chloro-5-[(7S)-2-[[(2R,8S)-2-fluoro-1,2,3,5,6,7-hexahydropyrrolizin-8-yl]methoxy]-6-methyl-spiro[5,8-dihydropyrido[4,3-d]pyrimidine-7,1′-tetralin]-4-yl]-4,6,7,8-tetrahydropyrazolo[1,5-a][1,4]diazepin-2-amine], the IC50 is more than 100 µM against KRAS G12D/RAF1 and 1 to 10 µM in assay [1] (Homo sapiens).

As for `CN1Cc2c(nc(OC[C@@]34CCCN3C[C@H](F)C4)nc2N2C[C@H]3CC[C@@H](C2)N3)C[C@]12CCCc1ccccc12` [Compound 84, (7S)-4-[(1R,5S)-3,8-diazabicyclo[3.2.1]octan-3-yl]-2-[[(2R,8S)-2-fluoro-1,2,3,5,6,7-hexahydropyrrolizin-8-yl]methoxy]-6-methyl-spiro[5,8-dihydropyrido[4,3-d]pyrimidine-7,1′-tetralin]], the 50% inhibitory concentration (IC50) at KRAS G12D/RAF1 was more than 100 µM; in assay [1] (Homo sapiens), 1 to 10 µM.

Consider `OC1CCCN(c2nc(OC[C@@]34CCCN3C[C@H](F)C4)nc3c2COC2(CCc4c(Cl)cccc42)C3)CC1` (mixture of isomers) [Compound 6, 1-[4′-chloro-2-[[rac-(2R,8S)-2-fluoro-1,2,3,5,6,7-hexahydropyrrolizin-8-yl]methoxy]spiro[5,8-dihydropyrano[4,3-d]pyrimidine-7,1′-indane]-4-yl]azepan-4-ol], for which the IC50 at KRAS G12D/RAF1 is more than 100 µM; in assay [1] (Homo sapiens), more than 10 µM.

As for `OC1CCCN(c2nc(OC[C@@]34CCCN3C[C@H](F)C4)nc3c2COC2(CCCc4c(Cl)cccc42)C3)CC1` (stereo partly drawn) [Compound 15, 1-[5′-chloro-2-[[(2R,8S)-2-fluoro-1,2,3,5,6,7-hexahydropyrrolizin-8-yl]methoxy]spiro[5,8-dihydropyrano[4,3-d]pyrimidine-7,1′-tetralin]-4-yl]azepan-4-ol], the half-maximal inhibitory concentration (IC50) at KRAS G12D/RAF1 was more than 100 µM; in assay [1] (Homo sapiens), more than 10 µM.

On to `C[C@@]1(NC#N)CCCN(c2nc(OC[C@@]34CCCN3C[C@H](F)C4)nc3c2COC2(CCc4c(Cl)cccc42)C3)C1` (stereo partly drawn) [Compound 46A, [(3R)-1-[(7*)-4′-chloro-2-[[(2R,8S)-2-fluoro-1,2,3,5,6,7-hexahydropyrrolizin-8-yl]methoxy]spiro[5,8-dihydropyrano[4,3-d]pyrimidine-7,1′-indane]-4-yl]-3-methyl-3-piperidyl]cyanamide; 2,2,2-trifluoroacetic acid], for which the IC50 at KRAS G12D/RAF1 is 10 to 100 µM; in assay [1] it was more than 10 µM.

What is called IC50 is the concentration that gives 50% inhibition.
